Data published in patent publication US20240216320A1, “COMPOSITIONS AND METHODS FOR TREATING SICKLE CELL DISEASE” (Augusta University Research Institute, Inc., priority 2019, published 2024).

Assays:
[1] = tested on: γ-globin mRNA in K562 cells; test: γ-globin transcription by RT-qPCR in K562 cells; assay type: cell-based; details: 48 h
Experimental: Initial studies were conducted in K562 cells to determine the ability of AN-233 to induce γ-globin transcription and HbF expression. K562 cells display characteristics of erythroid cells including expression of the ε, γ and α globin genes and these cells are useful for initial drug screening and discovery of potential HbF inducers.
K562 cells were treated with AN-233 for 48 h and globin gene transcription was analyzed by RT-qPCR. […]
(§1) K562 cells were cultured in Iscove's Modified Dulbecco medium (IMDM) with 10% fetal bovine serum, penicillin (100 U/mL) and streptomycin (0.1 mg/mL). Drug inductions for K562 cells were conducted for 48 h and cell viability evaluated with 0.4% Trypan blue exclusion. Cell counts were performed a dual chamber apparatus and the percentage viability obtained using an Automated Cell Counter (Bio-Rad).
Total RNA was extracted from cells using Trizol (Ambion, Carlsbad CA) and analyzed by RT-qPCR as previously published by our group. Gene-specific primers were used to quantify mRNA levels for γ-globin, β-globin and internal control glyceraldehyde-3-phosphate de-hydrogenase (GAPDH). All mRNA levels were normalized to GAPDH before analysis.

[2] = tested on: HbF in K562 cells; test: Western blot of HbF levels in K562 cells; assay type: cell-based; details: 48 h, AN-233 dose-dependent
Experimental: as §1
(§2) Western blot analysis was performed using whole cell lysates generated with RIPA buffer (ThermoScientific, Rockford, IL) supplemented with proteinase and phosphatase inhibitor cocktails. For histone acetylation studies, nuclear lysates were prepared by suspending cells in buffer containing 20 mM HEPES, pH 7.9, 50 mM KCl, 420 mM NaCl, 0.1 mM EDTA, 1 mM DTT, 10% glycerol and protease inhibitor mixture for 30 min, followed by centrifugation. Antibodies against HbF (51-7), HbA (37-8), and Tata binding protein (TBP; N-12) were purchased from Santa Cruz Biotechnology (Dallas TX); antibodies against β-actin (A5316) and rabbit IgG (18140) were purchased from Sigma (St. Louis MO). Acetylated histone H3 (AcH3; 06-599) and AcH4 (06-866) antibodies were purchased from Millipore (Burlington, MA).

[3] = tested on: intracellular heme in K562 cells; test: QuantiChrom heme quantitation assay in K562 cells; assay type: cell-based; details: for heme levels in control experiments: ALA 0.5 and 2.0 mM, hemin 75 μM
Experimental: The total cellular heme content was determined using the QuantiChrom™ Heme Assay Kit (DIHM-250, BioAssay Systems, Hayward, CA) per the manufacturer's instructions. Briefly, 25 μL of cellular lysate was mixed with 100 μL of detection reagent. The mixture was incubated at room temperature for 5 min followed by measuring the absorbance at 400 nm on a microplate reader. The total heme concentration was calculated based on a formula provided by the manufacturer: Heme concentration=(OD^sample−OD^blank)/(OD^calibrator−OD^blank)×125× dilution factor. This value was normalized by total protein in each sample.

[4] = tested on: HbF in sickle erythroid precursors; test: F-cells and HbF MFI by flow cytometry in sickle erythroid precursors; assay type: cell-based, human
Experimental: (§3) For primary cultures, erythroid precursors were generated from peripheral blood mononuclear cells isolated from discard blood of sickle patients under an IRB exempt protocol. These cells were cultured in a two-phase liquid culture system previously published (Li, B., et al., Haematologica 103:e384-e387 (2018)).
(§4) During phase 1, cells were grown in Iscove's Dulecco Media with 15% fetal bovine serum, 15% human AB serum, 10 ng/mL interleukin-3, 50 ng/mL stem cell factor and 2 IU/mL of erythropoietin (Peprotech, Rocky Hill NJ). Phase 2 of culture initiated on day 7 with a similar medium without stem cell factor and interleukin-3. On day 8, erythroid precursors were treated with AN-233 (0.125 mM and 0.25 mM), ethanol (EtOH; […] and 0.016%) and the positive control HU (100 μM) for 48 h and harvested for the various analyses.
(§5) To measure percent HbF positive cells (F-cells), K562 cells and erythroid precursors were fixed with 1% formaldehyde, permeabilized with ice-cold acetone:methanol (4:1 ratio) and stained with fluorescein isothiocyanate (FITC) anti-HbF antibody (ab19365, Abcam Cambridge MA) and isotype control IgG antibody (MBS524511, MyBioSource, San Diego CA) was used to detect non-specific staining. The F-cells levels and HbF protein levels measured by mean fluorescence intensity (MFI) were analyzed on an LSR-II flow cytometer (BD Biosciences, San Jose CA) and FlowJo analysis to generate quantitative data.

[5] = tested on: sickle erythroid precursors; test: In vitro sickling assay under 2% oxygen; assay type: cell-based, human
Experimental: In vitro sickling studies were conducted as previously published by our group (Zhu, X., et al., Blood, 131:558-562 (2018)). Briefly, after drug inductions of sickle erythroid pre-cursors for 48 h, cells were incubated in 2% oxygen overnight and then fixed with 2% formaldehyde. Erythroid morphology was evaluated microscopically and the number of sickled cells per high power field manually counted for 1000 cells, per triplicates per condition.

[6] = tested on: β-YAC transgenic mice; test: Toxicity, body weight, blood counts and reticulocytes in β-YAC transgenic mice
Experimental: The β-YAC is a transgenic mouse model containing the full-length 81 kb human β-globin gene locus including the LCR and surrounding region. The five functional human globin genes 5′-ε-Gγ-Aγ-[…]-β-3′ are present and undergo normal developmental regulation with the γ-globin gene silenced shortly after birth. β-YAC mice (5-6 months old) were administered AN-233 suspended in water (200 or 300 mg/kg) 5 days/week for 4 weeks by intraperitoneal injection; five mice per group with 3 males and 2 females were treated. Hydroxyurea (100 mg/kg) was included as a positive control. Blood was collected by tail bleed at week 0, 2 and 4 and analyzed for automated complete blood counts with differential using a Micros 60 machine (HORIBA Medical/ABX Diagnostics). The level of F-cells and MFI were performed by flow cytometry. For reticulocyte counts, whole blood was stained with acridine orange and flow cytometry performed on an LSR-II flow cytometer (BD Biosciences).

[7] = tested on: HbF in K562 cells; test: HbF positive cells (F-cells) by flow cytometry in K562 cells; assay type: cell-based
Experimental: as §1, §5

[8] = tested on: Heme-regulated inhibitor (HRI) kinase; test: Western blot of HRI in K562 cells; assay type: cell-based; details: dose-dependent, maximal
Experimental: as §2
(§6) Since the biosynthesis of heme prosthetic group requires ALA as a precursor and AN-233 is hydrolyzed to BA and ALA, it was next determined whether heme levels are altered after treatments of K562 cells. Using a colorimetric quantitative assay, a 1.5-fold and 1.8-fold increase (p<0.05) in intracellular heme was observed after 0.25 mM and 0.5 mM AN-233 treatment respectively (FIG. 2A). […] Therefore, K562 cells were treated with AN-233 and phosphorylated and total HRI and eIF2αP levels were measured. […]

[9] = tested on: eIF2αP (eukaryotic translation initiation factor 2α phosphorylation); test: Western blot of eIF2αP in K562 cells; assay type: cell-based; details: dose-dependent, maximal
Experimental: as §2, §6

[10] = tested on: p38 MAPK; test: Western blot of phosphorylated p38 MAPK in K562 cells; assay type: cell-based; details: 0.25 mM
Experimental: as §2
The second active metabolite of AN-233 hydrolysis is BA. It was previously reported that HbF induction by BA occurs through p38 MAPK activation.

[11] = tested on: HbF in sickle erythroid precursors; test: Western blot of HbF in sickle erythroid precursors; assay type: cell-based, human
Experimental: as §3, §4
(§7) Western blot analysis was performed using whole cell lysates generated with RIPA buffer (ThermoScientific, Rockford, IL) supplemented with proteinase and phosphatase inhibitor cocktails. For histone acetylation studies, nuclear lysates were prepared by suspending cells in buffer containing 20 mM HEPES, pH 7.9, 50 mM KCl, 420 mM NaCl, 0.1 mM EDTA, 1 mM DTT, 10% glycerol and protease inhibitor mixture for 30 min, followed by centrifugation. […]

[12] = tested on: HbS in sickle erythroid precursors; test: Western blot of HbS in sickle erythroid precursors; assay type: cell-based, human; details: 0.25 mM
Experimental: as §3, §4, §7

[13] = tested on: acetylated histone H3 (AcH3); test: Western blot of acetylated histone H3 in nuclear lysates of sickle erythroid cells; assay type: cell-based, human
Experimental: as §2

[14] = tested on: γ-globin promoter; test: ChIP assay, histone acetylation in γ-globin promoter; assay type: cell-based, human; details: for enrichment for AcH3 in the γ-globin promoter: compared to IgG control, dose-dependent
Experimental: (§8) ChIP assay was performed as previously published by our group with immunoprecipitations for AcH3, AcH4 and TBP antibodies (Santa Cruz Biotechnology) and rabbit IgG as a control. Primers used to quantify in vivo chromatin modifications are as follows: locus control region DNase I hypersensitive site 2 (LCR-HS2) forward […] (SEQ ID NO:1) and reverse […] (SEQ ID NO:2), γ-globin promoter (forward CTGAAACGGTCCCTGGCTA (SEQ ID NO:3), reverse […] (SEQ ID NO:4)), and β-globin promoter (forward […] (SEQ ID NO:5), reverse […] (SEQ ID NO:6)).

[15] = tested on: LCR-HS2; test: ChIP assay, histone acetylation in LCR-HS2; assay type: cell-based, human
Experimental: as §8

[16] = tested on: β-globin gene promoter; test: ChIP assay, histone acetylation in β-globin gene promoter; assay type: cell-based, human
Experimental: as §8

[17] = tested on: HbF in β-YAC transgenic mice; test: HbF induction (F-cells, MFI) in β-YAC transgenic mice; assay type: in vivo, mouse
[18] = tested on: anemic C57BL mouse model; details: cited from earlier work
[19] = tested on: HbF in patients with β-thalassemia; details: cited from earlier work

## NCC(=O)CCC(=O)O [ALA, δ-aminolevulinate]
[1]; 0.125 mM
  increase in γ-globin mRNA levels: 1.5 fold
[2]
  increase in HbF by Western blot: 6 fold
[3]
  heme levels in control experiments: increased heme levels

## NC(=O)NO [HU, hydroxyurea]
[1]; HU control
  γ-globin mRNA induction: 1.7 fold
[4]; sickle erythroid precursors, HU 100 μM
  HbF measured by MFI, compared with AN-233: comparable
[5]; 2% oxygen overnight, HU
  anti-sickling effect, compared with AN-233: similar
[6]; β-YAC mice, 4-week treatment, AN-233 at both doses, HU 100 mg/kg
  blood counts (Hb, hematocrit, white blood cells, platelets): decreased total Hb, hematocrit, and white blood cell and platelet counts
[6]; β-YAC mice, HU 100 mg/kg ip, week 4, p=0.002
  increase in reticulocytes: 1.9 fold
[6]; β-YAC mice, ip, 4 weeks of treatment, all groups
  body weights: normal body weights were maintained

## CCCC(=O)OC(C)OC(=O)CCC(=O)CN (stereo not drawn) [AN-233, 1-(butyryloxy)ethyl-5-amino-4-oxopentanoate]
[1]; 0.125 mM
  increase in γ-globin mRNA levels: 1.8 fold
[1]; 0.25 mM
  increase in γ-globin mRNA levels: 2.0 fold
[7]; K562 cells, 0.125 and 0.25 mM, 48 h, maximum, 10% in EtOH treated controls
  F-cells: 19%
[3]; 0.25 mM
  increase in intracellular heme: 1.5 fold
[3]; 0.5 mM
  increase in intracellular heme: 1.8 fold
[8]
  decrease in HRI: 52%
[9]
  decrease in eIF2αP levels: 50%
[10]
  increase in phosphorylated p38 MAPK: 1.4 fold
[4]; sickle erythroid precursors, 0.125 and 0.25 mM, 48 h, maximal
  increase in F-cells: 2 fold
[4]; sickle erythroid precursors, 0.125 and 0.25 mM, maximal, from 16.31%
  F-cells: 32.5%
[4]; sickle erythroid precursors, 48 h
  increase in HbF measured by MFI: 1.5 fold
[11]; sickle erythroid precursors, 0.25 mM
  increase in HbF protein by Western blot: 2.6 fold
[12]
  HbS expression by Western blot: without changing HbS expression
[5]; 2% oxygen overnight
  reduction of the percentage of sickled erythroid precursors: up to 56%
[13]
  global AcH3 levels in nuclear lysates: increased global AcH3 levels
[14]; ChIP
  AcH4 levels in the γ-globin promoter: increased
[14]; first (lower) value
  enrichment for AcH3 in the γ-globin promoter: 12 fold
[14]; second (higher) value
  enrichment for AcH3 in the γ-globin promoter: 30 fold
[15]
  increase in AcH3 in LCR-HS2: 12.5 fold
  increase in AcH4 in LCR-HS2: 5 fold
[16]
  histone acetylation at the β-globin gene promoter: no significant changes
[17]; 200 mg/kg ip
  increase in F-cells: 3.4 fold
  increase in HbF measured by MFI: 1.4 fold
[17]; 200 mg/kg ip, from 15.46%
  F-cells: 52.5%
[17]; 200 mg/kg ip, from 588 units
  HbF measured by MFI: 824 units
[17]; 300 mg/kg ip
  increase in F-cells: 4.5 fold
  increase in HbF measured by MFI: 1.7 fold
[17]; 300 mg/kg ip, from 13.5%
  F-cells: 60.6%
[17]; 300 mg/kg ip, from 447 units
  HbF measured by MFI: 760 units
[6]; mouse, in vivo
  anti-proliferative effects on erythropoiesis: without observing anti-proliferative effects
[6]; β-YAC mice, 300 mg/kg ip, week 4, p=0.01
  increase in reticulocytes: 1.8 fold
[18]; anemic C57BL mice, oral, 4 weeks, up to 400 mg/kg
  toxicity: without toxicity
[18]; anemic C57BL mice, oral, 4 weeks
  hemoglobin levels: improved
[18]; tissue harvested 4 to 6 h after one oral dose
  histone acetylation in spleen tissue: histone hyper-acetylation

## CCCC(=O)O [BA, butyric acid]
[1]; 0.125 mM
  increase in γ-globin mRNA levels: 3 fold
[2]
  increase in HbF by Western blot: 2 fold

## C[S+]([O-])c1ccc(-c2nc(-c3ccncc3)c(-c3ccc(F)cc3)[nH]2)cc1 (stereo not drawn) [SB203580, reference compound]
[7]; pretreatment with SB203580 10 μM followed by 0.25 mM AN-233
  decrease in F-cell levels: 30%
[4]; SB203580 pretreatment, at both AN-233 concentrations
  effect of pretreatment on F-cells and MFI: reduced F-cells and MFI levels
[11]; SB203580 treatment with 0.25 mM AN-233
  effect on AN-233 HbF protein increase by Western blot: inhibited
[5]; SB203580 pretreatment before AN-233, 2% oxygen
  sickled erythroid progenitor levels after pretreatment: higher sickled erythroid progenitor levels

## hemin [reference compound]
[3]
  heme levels in control experiments: increased heme levels

## CCC(C)(C)C(=O)[O-].[Na+] [sodium dimethylbutyrate]
[19]
  patients with HbF induction: 70 % of patients
